Values of other authors, collected in patent publication US6964953B2, “Methods for treating stress disorders using glucocorticoid receptor-specific antagonists” (Corcept Therapeutics, Inc., priority 2001, dated 2005).

Assays:
[1] = in one study; Kawai (1989)
[2] = tested on: rat hippocampus; conditions: Talmi et al. 1996
[3] = tested on: mouse hippocampus neuronal cells; conditions: Behl et al. 1997
[4] = biological target: T1, glucocorticoid (GR) receptor (Homo sapiens, UniProt P04150); conditions: result in words
T1 sequence (P04150 1-777): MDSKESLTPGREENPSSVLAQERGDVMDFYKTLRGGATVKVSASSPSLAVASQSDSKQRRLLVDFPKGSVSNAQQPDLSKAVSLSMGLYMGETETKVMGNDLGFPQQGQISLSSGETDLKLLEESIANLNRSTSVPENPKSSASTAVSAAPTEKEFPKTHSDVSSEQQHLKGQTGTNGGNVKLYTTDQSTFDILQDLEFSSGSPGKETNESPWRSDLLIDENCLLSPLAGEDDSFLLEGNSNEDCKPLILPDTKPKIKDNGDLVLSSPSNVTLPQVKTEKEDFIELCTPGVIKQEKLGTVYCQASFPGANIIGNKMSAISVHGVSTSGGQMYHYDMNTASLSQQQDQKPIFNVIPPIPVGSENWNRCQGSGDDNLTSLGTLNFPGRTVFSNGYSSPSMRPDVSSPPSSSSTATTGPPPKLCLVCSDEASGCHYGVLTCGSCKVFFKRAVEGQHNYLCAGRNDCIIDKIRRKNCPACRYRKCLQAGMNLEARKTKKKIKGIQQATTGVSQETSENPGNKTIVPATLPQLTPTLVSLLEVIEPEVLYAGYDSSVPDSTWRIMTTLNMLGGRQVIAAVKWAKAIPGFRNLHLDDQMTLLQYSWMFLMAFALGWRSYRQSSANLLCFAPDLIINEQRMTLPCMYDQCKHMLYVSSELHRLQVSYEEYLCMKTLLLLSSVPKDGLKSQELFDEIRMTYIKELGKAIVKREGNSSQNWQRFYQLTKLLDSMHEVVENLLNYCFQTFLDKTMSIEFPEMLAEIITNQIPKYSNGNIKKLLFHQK

[5] = biological target: T2, progesterone receptor (Homo sapiens, UniProt P06401); conditions: result in words
T2 sequence (P06401 1-933): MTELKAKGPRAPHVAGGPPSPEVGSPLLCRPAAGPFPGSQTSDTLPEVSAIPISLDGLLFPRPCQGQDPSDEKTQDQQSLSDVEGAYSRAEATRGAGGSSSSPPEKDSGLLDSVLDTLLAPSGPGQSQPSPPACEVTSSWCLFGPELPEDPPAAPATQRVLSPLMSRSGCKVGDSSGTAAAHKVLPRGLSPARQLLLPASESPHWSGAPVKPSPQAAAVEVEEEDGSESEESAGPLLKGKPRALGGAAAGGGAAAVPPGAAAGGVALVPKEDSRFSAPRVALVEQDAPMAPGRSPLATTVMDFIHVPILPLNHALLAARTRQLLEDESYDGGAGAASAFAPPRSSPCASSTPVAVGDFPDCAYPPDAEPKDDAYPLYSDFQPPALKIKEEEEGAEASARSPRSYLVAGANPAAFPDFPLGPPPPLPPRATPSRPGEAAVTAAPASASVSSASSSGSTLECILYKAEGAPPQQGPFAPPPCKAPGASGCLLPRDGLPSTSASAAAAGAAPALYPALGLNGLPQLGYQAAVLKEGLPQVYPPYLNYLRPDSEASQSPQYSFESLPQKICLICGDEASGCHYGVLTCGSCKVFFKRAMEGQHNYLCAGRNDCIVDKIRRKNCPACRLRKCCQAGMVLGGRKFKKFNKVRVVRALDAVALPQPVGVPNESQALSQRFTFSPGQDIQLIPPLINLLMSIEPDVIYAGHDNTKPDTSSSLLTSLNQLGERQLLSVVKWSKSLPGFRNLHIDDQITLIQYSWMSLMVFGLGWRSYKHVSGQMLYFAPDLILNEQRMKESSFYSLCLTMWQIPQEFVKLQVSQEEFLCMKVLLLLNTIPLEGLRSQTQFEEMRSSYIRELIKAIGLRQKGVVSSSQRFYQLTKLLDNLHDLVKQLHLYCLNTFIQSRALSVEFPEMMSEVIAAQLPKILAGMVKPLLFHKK

Structure (SMILES): CC#C[C@]1(O)CC[C@H]2[C@@H]3CCC4=CC(=O)CCC4=C3[C@@H](c3ccc(N(C)C)cc3)C[C@@]21C [Mifepristone, 17-beta-hydroxy-11-beta-(4-dimethyl-aminophenyl)-17-alpha-(1-propynyl)-estra-4,9-dien-3-one]
- daily dose excreted in the urine [1]: less than 0.5%
- abrogation of age-associated electrophysiological changes [2]: effective at abrogating some of the age-associated electrophysiological changes
- protection against oxidative stress-induced neuronal cell death [3]: providing protection against oxidative stress-induced neuronal cell death
- GR antagonist activity [4]: powerful antagonist
- progesterone receptor antagonist activity [5]: powerful antagonist

Structure (SMILES): CC#C[C@]1(O)CC[C@H]2[C@@H]3CCC4=CC(=O)CCC4=C3[C@@H](c3ccc(OCCN(C)C)cc3)C[C@@]21C [RU009, 11-beta-(4-dimethyl-aminoethoxyphenyl)-17-alpha-(propynyl-17 beta-hydroxy-4,9-estradien-3-one)]
- GR antagonist activity [4]: shown to have GR antagonist effects
